From US20160177395A1, “BIOMARKERS FOR THE PREDICTION OF RENAL INJURY” (priority 2007, published 2016)
“And” between values parts separate entries of the source, which are not always exact repeats. Equal values may be shown once.

Assays:
[1] = system: kidney tissues of treated or untreated rats; experiment: Real-time qRT-PCR of signature amplicons, validation stage, labeled and un-labeled samples (Table 23); conditions: for H31883_DB71_seg13 normalized qRT-PCR result / MUSCYCG1R_DB81_seg19-20 normalized qRT-PCR result / W41270_DB81_seg11 normalized qRT-PCR result: un-labeled sample, one line per animal; for AI045075_DB71_seg6 normalized qRT-PCR expression (Interferon stimulated exonuclease 20 (ISG20) transcript) / H31883_DB71_seg13 normalized qRT-PCR expression (Cyclin-G1 (CCNG1) transcript) / MUSCYCG1R_DB81_seg19-20 normalized qRT-PCR expression / W41270_DB81_seg11 normalized qRT-PCR expression (tumor necrosis factor receptor superfamily, member 12a transcript) / W64472_DB81_seg2 normalized qRT-PCR expression (Interferon stimulated exonuclease 20 (ISG20) transcript) / W83813_DB81_seg27 normalized qRT-PCR expression: un-labeled samples, kidney of individual male/female rats
Excerpt: New primers were designed for part of the transcripts, and new conditions for several qRT-PCR reactions were used, as described below.
The measurements were normalized in two steps. First—according to the house-keeping-genes normalization factor, and second—each plate was normalized according to ratio of the intensity measurements from samples appearing in it and in the shuffled (normalization) plate (Table 25 provides the plates details and the section “Inter-Plate Normalization” provides details of the normalization process). The normalized values were further scaled by a factor, for ease of viewing.
RT was prepared and qRT-PCR performed and analyzed as described hereinabove. qRT-PCR was performed for the four genes comprising the signature of the discovery stage described in Table 13. Two amplicons were tested for each gene—one representing the wild-type transcript, and another representing an alternative splice variant. Each amplicon was measured using the labeled samples described in Table 9 herein, as well as the un-labeled samples. Samples from both groups (labeled and un-labeled) were tested in seven 96 well plates as described in Table 25. In order to correct possible run to run variations, the following controls were added: 1. several samples were repeated in all 96 wells plates; 2. control shuffled plate was designed which combined samples from all seven test plates.
To account for possible differences of qRT-PCR measurements between the different plates due to experimental artifacts, a normalization plate was planned. This plate, designated hereinabove ‘shuffled plate’, contained samples from all other plates. Real Time PCR was performed on this plate using the primers appropriate for all candidates in tables 26 and 27. For each other plate (plates 1-7 above) and each amplicon, the samples appearing also in the shuffled plate were examined—the ratio between the transcript abundance as measured in the plate to the abundance as measured in the shuffled plate was calculated, outliers were manually removed, and the geometric mean of the left ratios was taken as an additional multiplicative normalization factor for the plate and amplicon.

rat kidney samples = experiment: Random-Forest classifiers applied to un-labeled samples of T1, T2, T3 and control (Table 30); conditions: for Average 'Toxic' (%): average of the two classifiers
Procedure: To validate the optimal signature for classification of renal toxicity of a compound after five days of application a test of the signatory polynucleotide/gene expression in rat kidney samples consisting of tissues from rats exposed to three drug compounds and a single control group was carried out (Teva Pharmaceutical Industries, IL).
The two optimal classifiers (signatures described in Tables 26 and 27) were applied to the qRT-PCR reads of the un-labeled samples and their calls was used to assign a level of toxicity to each group and, eventually, each compound.
The classifiers described in Tables 26 and 27, were used for testing the un-labeled samples. Both classifiers were applied to the measurements of each sample, used the 30% bound from above, and the number of samples pass that bound in each group were summarized.

kidney = experiment: Renal histopathology of rats treated with T1, T2, T3; type: in vivo, rat; conditions: rats
Procedure: Each group consisted of 6 male and 6 female rats. The additional groups consisted of 6 males and 6 female rats treated with control compound for a single day and for five days, as described in Table 24.
T2 “no observed effect level” (NOEL, i.e., the maximal dose at which no toxic effect is visible) is 15 mg/kg.
At autopsy, both kidneys of each animal were removed and each kidney was cross sectioned. Half of each kidney was sent to RNA extraction and analysis.

[2] = Ds1, Day1, oral gavage, female rat kidney
[3] = Ds1, Day1, oral gavage, male rat kidney
[4] = Ds1, Day5, oral gavage, female rat kidney
[5] = Ds1, Day5, oral gavage, male rat kidney
[6] = Ds2, Day1, oral gavage, female rat kidney
[7] = Ds2, Day1, oral gavage, male rat kidney
[8] = Ds2, Day5, oral gavage, female rat kidney
[9] = Ds2, Day5, oral gavage, male rat kidney

C#CCN(C)c1nc2ccc(OC(F)(F)F)cc2s1 [T1]
H31883_DB71_seg13 normalized qRT-PCR result [1, 2]: 0.825 and 0.917 and 1.186 | MUSCYCG1R_DB81_seg19-20 normalized qRT-PCR result [1, 2]: 0.49 and 0.762 and 0.981 | W41270_DB81_seg11 normalized qRT-PCR result [1, 2]: 0.752 and 0.548 and 1.047 | H31883_DB71_seg13 normalized qRT-PCR result [1, 3]: 0.155 and 0.178 and 0.143 and 0.169 and 0.245 | MUSCYCG1R_DB81_seg19-20 normalized qRT-PCR result [1, 3]: 0.574 and 1.13 and 0.805 and 0.4 and 1.416 | W41270_DB81_seg11 normalized qRT-PCR result [1, 3]: 0.778 and 1.501 and 0.981 and 0.439 and 1.502 | H31883_DB71_seg13 normalized qRT-PCR result [1, 4]: 1.511 and 1.328 and 1.593 and 0.893 | MUSCYCG1R_DB81_seg19-20 normalized qRT-PCR result [1, 4]: 1.162 and 1.367 and 1.089 and 0.831 | W41270_DB81_seg11 normalized qRT-PCR result [1, 4]: 0.745 and 0.945 and 0.938 and 0.606 | H31883_DB71_seg13 normalized qRT-PCR result [1, 5]: 0.125 and 0.208 and 0.165 and 0.207 and 0.2 and 0.323 | MUSCYCG1R_DB81_seg19-20 normalized qRT-PCR result [1, 5]: 2.031 and 0.904 and 0.937 and 0.783 and 1.364 and 0.717 | W41270_DB81_seg11 normalized qRT-PCR result [1, 5]: 1.835 and 0.991 and 0.687 and 0.902 and 1.35 and 0.684 | H31883_DB71_seg13 normalized qRT-PCR result [1, 6]: 0.861 and 0.549 and 0.725 and 1.045 | MUSCYCG1R_DB81_seg19-20 normalized qRT-PCR result [1, 6]: 1.067 and 0.514 and 0.639 and 0.965 | W41270_DB81_seg11 normalized qRT-PCR result [1, 6]: 0.898 and 0.415 and 0.502 and 1.028 | H31883_DB71_seg13 normalized qRT-PCR result [1, 7]: 0.889 and 0.656 and 0.473 | MUSCYCG1R_DB81_seg19-20 normalized qRT-PCR result [1, 7]: 0.932 and 0.544 and 0.541 | W41270_DB81_seg11 normalized qRT-PCR result [1, 7]: 1.326 and 0.785 and 0.592 | H31883_DB71_seg13 normalized qRT-PCR result [1, 8]: 1.025 and 0.454 and 1.074 and 1.674 | MUSCYCG1R_DB81_seg19-20 normalized qRT-PCR result [1, 8]: 0.935 and 1.478 and 0.868 and 1.487 | W41270_DB81_seg11 normalized qRT-PCR result [1, 8]: 0.989 and 1.223 and 0.652 and 1.056 | H31883_DB71_seg13 normalized qRT-PCR result [1, 9]: 0.654 and 1.077 and 1.236 and 0.596 | MUSCYCG1R_DB81_seg19-20 normalized qRT-PCR result [1, 9]: 0.539 and 1.161 and 1.793 and 0.73 | W41270_DB81_seg11 normalized qRT-PCR result [1, 9]: 0.527 and 1.181 and 2.203 and 0.784 | AI045075_DB71_seg6 normalized qRT-PCR expression (Interferon stimulated exonuclease 20 (ISG20) transcript) ([1]; dose Ds1, Day1, oral gavage): 0.843 and 0.636 and 0.572 | H31883_DB71_seg13 normalized qRT-PCR expression (Cyclin-G1 (CCNG1) transcript) ([1]; dose Ds1, Day1, oral gavage): 0.913 and 0.757 and 0.615 and 0.73 and 0.524 and 0.783 and 0.912 and 0.87 and 0.957 and 0.923 and 0.706 | MUSCYCG1R_DB81_seg19-20 normalized qRT-PCR expression ([1]; dose Ds1, Day1, oral gavage): 1.49 and 0.291 and 0.271 and 0.376 and 0.135 and 1.436 and 1.195 and 0.249 and 1.891 and 0.299 and 2.31 | W41270_DB81_seg11 normalized qRT-PCR expression (tumor necrosis factor receptor superfamily, member 12a transcript) ([1]; dose Ds1, Day1, oral gavage): 0.66 and 0.181 and 0.396 and 0.198 and 0.231 and 0.758 and 0.646 and 0.47 and 1.082 and 0.734 and 0.566 | W64472_DB81_seg2 normalized qRT-PCR expression (Interferon stimulated exonuclease 20 (ISG20) transcript) ([1]; dose Ds1, Day1, oral gavage): 1.118 and 0.683 and 0.49 | W83813_DB81_seg27 normalized qRT-PCR expression ([1]; dose Ds1, Day1, oral gavage): 0.216 and 0.843 and 0.926 | AI045075_DB71_seg6 normalized qRT-PCR expression (Interferon stimulated exonuclease 20 (ISG20) transcript) ([1]; dose Ds1, Day5, oral gavage): 0.692 and 0.627 | H31883_DB71_seg13 normalized qRT-PCR expression (Cyclin-G1 (CCNG1) transcript) ([1]; dose Ds1, Day5, oral gavage): 1.373 and 1.353 and 1.266 and 1.783 and 1.477 and 1.097 and 2.104 and 1.249 and 1.458 and 1.23 and 1.01 and 1.013 | MUSCYCG1R_DB81_seg19-20 normalized qRT-PCR expression ([1]; dose Ds1, Day5, oral gavage): 1.598 and 0.183 and 0.149 and 0.214 and 3.532 and 0.296 and 3.397 and 0.186 and 1.317 and 0.189 and 0.816 and 1.499 | W41270_DB81_seg11 normalized qRT-PCR expression (tumor necrosis factor receptor superfamily, member 12a transcript) ([1]; dose Ds1, Day5, oral gavage): 1.527 and 0.473 and 0.702 and 0.356 and 1.325 and 0.657 (2×) and 1.014 and 1.11 and 1.337 and 0.638 and 0.703 | W64472_DB81_seg2 normalized qRT-PCR expression (Interferon stimulated exonuclease 20 (ISG20) transcript) ([1]; dose Ds1, Day5, oral gavage): 0.571 and 0.528 | W83813_DB81_seg27 normalized qRT-PCR expression ([1]; dose Ds1, Day5, oral gavage): 0.795 and 0.885 | AI045075_DB71_seg6 normalized qRT-PCR expression (Interferon stimulated exonuclease 20 (ISG20) transcript) ([1]; dose Ds2, Day1, oral gavage): 0.483 and 0.759 and 0.448 and 0.547 and 0.396 | H31883_DB71_seg13 normalized qRT-PCR expression (Cyclin-G1 (CCNG1) transcript) ([1]; dose Ds2, Day1, oral gavage): 0.517 (2×) and 0.906 and 0.849 and 0.696 and 0.611 and 0.707 and 0.867 and 1.153 and 1.19 and 0.623 and 0.798 | MUSCYCG1R_DB81_seg19-20 normalized qRT-PCR expression ([1]; dose Ds2, Day1, oral gavage): 0.385 and 0.76 and 0.739 and 0.478 and 0.738 and 0.652 and 0.654 and 1.261 and 0.609 and 0.835 and 0.696 and 0.804 | W41270_DB81_seg11 normalized qRT-PCR expression (tumor necrosis factor receptor superfamily, member 12a transcript) ([1]; dose Ds2, Day1, oral gavage): 0.78 and 0.755 and 0.885 and 0.462 and 0.413 and 0.762 and 0.644 and 1.034 and 1.265 and 0.653 and 0.383 and 0.472 | W64472_DB81_seg2 normalized qRT-PCR expression (Interferon stimulated exonuclease 20 (ISG20) transcript) ([1]; dose Ds2, Day1, oral gavage): 0.944 and 1.213 and 0.661 and 0.559 and 0.462 | W83813_DB81_seg27 normalized qRT-PCR expression ([1]; dose Ds2, Day1, oral gavage): 1.186 and 0.984 and 0.34 and 0.689 and 0.56 | AI045075_DB71_seg6 normalized qRT-PCR expression (Interferon stimulated exonuclease 20 (ISG20) transcript) ([1]; dose Ds2, Day5, oral gavage): 0.797 and 0.766 and 1.01 and 0.629 | H31883_DB71_seg13 normalized qRT-PCR expression (Cyclin-G1 (CCNG1) transcript) ([1]; dose Ds2, Day5, oral gavage): 1.36 and 1.037 and 1.84 and 1.348 and 2.423 and 1.13 and 2.468 and 1.684 and 1.672 and 1.663 and 1.554 and 0.996 | MUSCYCG1R_DB81_seg19-20 normalized qRT-PCR expression ([1]; dose Ds2, Day5, oral gavage): 0.359 and 0.871 and 0.852 and 0.761 and 1.197 and 0.631 and 1.238 and 0.528 and 1.583 and 1.018 and 0.919 and 0.756 | W41270_DB81_seg11 normalized qRT-PCR expression (tumor necrosis factor receptor superfamily, member 12a transcript) ([1]; dose Ds2, Day5, oral gavage): 0.009 and 0.391 and 0.964 and 0.713 and 1.825 and 0.453 and 1.254 and 1.111 and 1.126 and 1.164 and 1 and 0.71 | W64472_DB81_seg2 normalized qRT-PCR expression (Interferon stimulated exonuclease 20 (ISG20) transcript) ([1]; dose Ds2, Day5, oral gavage): 0.803 and 0.863 and 0.982 and 0.554 | W83813_DB81_seg27 normalized qRT-PCR expression ([1]; dose Ds2, Day5, oral gavage): 1.092 and 1.125 and 0.885 and 0.55 | Average 'Toxic' (%) (rat kidney samples; Ds1 Day1 Female): 0% | Average 'Toxic' (%) (rat kidney samples; Ds1 Day1 Male): 17% | Average 'Toxic' (%) (rat kidney samples; Ds1 Day5 Female): 50% | Average 'Toxic' (%) (rat kidney samples; Ds1 Day5 Male): 50% | Average 'Toxic' (%) (rat kidney samples; Ds2 Day1 Female): 0% | Average 'Toxic' (%) (rat kidney samples; Ds2 Day1 Male): 0% | Average 'Toxic' (%) (rat kidney samples; Ds2 Day5 Female): 66.5% | Average 'Toxic' (%) (rat kidney samples; Ds2 Day5 Male): 33% | Toxicity conclusion from classifier calls (rat kidney samples; signatures of Tables 26 and 27, 30% bound): nephrotoxic agents | Time after which visible pathological damage was seen (kidney): 28 days | Renal damage (kidney; dose and duration as in the value): renal damage, mainly in females, after 28 days of treatment at the 30 mg/kg dose
